Earlier results, collected in patent publication US20260284033A1, “COMBINATION THERAPY WITH LP-PLA2 INHIBITOR AND A SECOND AGENT” (SciNeuro Therapeutics Inc., priority 2023, published 2026).

Assays:
[1] = test system: AD patients; conditions: phase 2, AD patients
[2] = test system: BBB leakage animal models

| SMILES | cognitive decline [1] | disease biomarkers [1] | tolerability [1] | BBB leakage [2] | vascular dementia pathology [2] |
| --- | --- | --- | --- | --- | --- |
| COCCN1CCC(N(Cc2ccc(-c3ccc(C(F)(F)F)cc3)cc2)C(=O)Cn2c(SCc3cccc(F)c3F)cc(=O)c3ccccc32)CC1 [rilapladib] | slowed down cognitive decline | improved disease biomarkers | well tolerated |  |  |
| CCN(CC)CCN(Cc1ccc(-c2ccc(C(F)(F)F)cc2)cc1)C(=O)Cn1c(SCc2ccc(F)cc2)nc(=O)c2c1CCC2 [darapladib] |  |  |  | reduced BBB leakage | improved vascular dementia pathology |
